# T1: Succinic semialdehyde dehydrogenase (SSADH) (Homo sapiens, UniProt P51649, H180Y)
# T1 construct: gene ALDH5A1; recombinant SSADH, amino acids 48–535, N-terminal His-tag
# T1 sequence (P51649 48-535 H180Y): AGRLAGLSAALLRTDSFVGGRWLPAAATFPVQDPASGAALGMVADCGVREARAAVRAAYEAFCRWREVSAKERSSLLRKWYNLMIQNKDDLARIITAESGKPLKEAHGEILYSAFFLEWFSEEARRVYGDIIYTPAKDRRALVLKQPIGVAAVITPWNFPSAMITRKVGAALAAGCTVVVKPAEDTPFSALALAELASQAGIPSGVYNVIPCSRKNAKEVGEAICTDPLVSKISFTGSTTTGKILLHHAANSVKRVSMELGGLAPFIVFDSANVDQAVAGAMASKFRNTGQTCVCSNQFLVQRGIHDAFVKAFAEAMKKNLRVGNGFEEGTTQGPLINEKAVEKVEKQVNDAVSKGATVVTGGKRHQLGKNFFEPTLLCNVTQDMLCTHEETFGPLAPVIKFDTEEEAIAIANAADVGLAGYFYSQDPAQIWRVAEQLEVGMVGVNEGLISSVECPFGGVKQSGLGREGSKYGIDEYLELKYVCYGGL
# T2: Succinic semialdehyde dehydrogenase (SSADH) (Homo sapiens, UniProt P51649, H180Y/N255D)
# T2 construct: gene ALDH5A1; recombinant SSADH, amino acids 48–535, N-terminal His-tag
# T2 sequence (P51649 48-535 H180Y/N255D): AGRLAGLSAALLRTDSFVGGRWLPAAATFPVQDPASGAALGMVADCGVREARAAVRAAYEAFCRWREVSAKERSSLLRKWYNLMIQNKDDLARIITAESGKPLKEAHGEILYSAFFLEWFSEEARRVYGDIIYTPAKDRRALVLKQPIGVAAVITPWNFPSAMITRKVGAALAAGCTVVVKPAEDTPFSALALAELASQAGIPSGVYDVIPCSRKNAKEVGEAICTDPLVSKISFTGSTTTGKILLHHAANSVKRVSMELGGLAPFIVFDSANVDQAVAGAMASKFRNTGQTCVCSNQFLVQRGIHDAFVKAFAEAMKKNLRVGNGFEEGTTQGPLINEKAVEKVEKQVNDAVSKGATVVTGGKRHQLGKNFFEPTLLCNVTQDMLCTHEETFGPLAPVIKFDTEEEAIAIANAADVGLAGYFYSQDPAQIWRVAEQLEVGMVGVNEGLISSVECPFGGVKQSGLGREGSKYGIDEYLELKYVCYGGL
# T3: Succinic semialdehyde dehydrogenase (SSADH) (Homo sapiens, UniProt P51649)
# T3 construct: gene ALDH5A1; recombinant SSADH, amino acids 48–535, N-terminal His-tag
# T3 sequence (P51649 48-535): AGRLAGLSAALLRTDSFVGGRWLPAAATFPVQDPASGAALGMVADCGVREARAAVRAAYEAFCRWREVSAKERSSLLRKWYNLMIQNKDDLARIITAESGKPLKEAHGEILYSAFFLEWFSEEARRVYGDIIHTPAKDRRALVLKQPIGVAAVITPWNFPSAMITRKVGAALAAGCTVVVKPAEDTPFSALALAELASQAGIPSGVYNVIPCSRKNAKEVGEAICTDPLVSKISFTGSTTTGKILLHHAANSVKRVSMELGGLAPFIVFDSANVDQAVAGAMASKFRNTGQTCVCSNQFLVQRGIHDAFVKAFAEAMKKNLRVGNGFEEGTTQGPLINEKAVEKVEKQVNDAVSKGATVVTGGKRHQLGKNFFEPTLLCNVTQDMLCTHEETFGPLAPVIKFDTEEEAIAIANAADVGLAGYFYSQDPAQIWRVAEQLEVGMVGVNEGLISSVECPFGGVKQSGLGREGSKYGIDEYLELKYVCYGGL
# Tests used:
# [1] = molecular target: T1, Succinic semialdehyde dehydrogenase (SSADH); assay: intrinsic fluorescence titration (excitation […] nm); CD and Tm shift of about […] °C in support; assay type: binding
# [2] = molecular target: T2, Succinic semialdehyde dehydrogenase (SSADH); assay: intrinsic fluorescence titration (excitation […] nm); assay type: binding
# [3] = molecular target: T3, Succinic semialdehyde dehydrogenase (SSADH); assay: intrinsic fluorescence titration (excitation […] nm); CD and Tm shift of about […] °C in support; assay type: binding
# [4] = molecular target: T3, Succinic semialdehyde dehydrogenase (SSADH); assay: purified enzyme turnover, NADH formation at […] nm ([…] SSA, […] NAD+); assay type: biochemical
# [5] = molecular target: T1, Succinic semialdehyde dehydrogenase (SSADH); assay: as above; assay type: biochemical
# [6] = molecular target: the molecule itself; assay: SEC; Superdex 200 (10/300), 100 mM potassium phosphate, 150 mM NaCl, pH 8; 0.1 to 5 mg/mL protein loaded; 280 nm signal
molecule,measurement,setting,value
NC(=O)c1ccc[n+]([C@@H]2O[C@H](COP(=O)([O-])OP(=O)(O)OC[C@H]3O[C@@H](n4cnc5c(N)ncnc54)[C@H](O)[C@@H]3O)[C@@H](O)[C@H]2O)c1 [NAD+],Kd,[1],3 ± 1 µM
same,Kd,[2],33 ± 13 µM
same,Kd,[3],2.8 ± 0.3 µM
O=CCCC(=O)O [Succinic semialdehyde],"purified enzyme turnover, NADH formation at 340 nm (10 μM SSA, 500 μM NAD+)",[4],65 s⁻¹
same,"purified enzyme turnover, NADH formation at 340 nm (10 μM SSA, 500 μM NAD+)",[5],54 s⁻¹
"Succinic semialdehyde dehydrogenase (SSADH), wildtype, recombinant (amino acids 48-535) (enzyme, human, UniProt P51649-1 48-535, looked up, No thrombin cleavage of the His-tag is described; also called WT SSADH; WT; source: E. coli BL21, purified (HisTrap, single step)) AGRLAGLSAALLRTDSFVGGRWLPAAATFPVQDPASGAALGMVADCGVREARAAVRAAYEAFCRWREVSAKERSSLLRKWYNLMIQNKDDLARIITAESGKPLKEAHGEILYSAFFLEWFSEEARRVYGDIIHTPAKDRRALVLKQPIGVAAVITPWNFPSAMITRKVGAALAAGCTVVVKPAEDTPFSALALAELASQAGIPSGVYNVIPCSRKNAKEVGEAICTDPLVSKISFTGSTTTGKILLHHAANSVKRVSMELGGLAPFIVFDSANVDQAVAGAMASKFRNTGQTCVCSNQFLVQRGIHDAFVKAFAEAMKKNLRVGNGFEEGTTQGPLINEKAVEKVEKQVNDAVSKGATVVTGGKRHQLGKNFFEPTLLCNVTQDMLCTHEETFGPLAPVIKFDTEEEAIAIANAADVGLAGYFYSQDPAQIWRVAEQLEVGMVGVNEGLISSVECPFGGVKQSGLGREGSKYGIDEYLELKYVCYGGL",stoichiometry N,[6],4
"Succinic semialdehyde dehydrogenase (SSADH) His180Tyr variant, recombinant (amino acids 48-535) (enzyme, human, UniProt P51649-1 48-535, looked up, No thrombin cleavage of the His-tag is described; also called H180Y; rs2760118 variant; source: E. coli BL21, purified (HisTrap, single step)) AGRLAGLSAALLRTDSFVGGRWLPAAATFPVQDPASGAALGMVADCGVREARAAVRAAYEAFCRWREVSAKERSSLLRKWYNLMIQNKDDLARIITAESGKPLKEAHGEILYSAFFLEWFSEEARRVYGDIIYTPAKDRRALVLKQPIGVAAVITPWNFPSAMITRKVGAALAAGCTVVVKPAEDTPFSALALAELASQAGIPSGVYNVIPCSRKNAKEVGEAICTDPLVSKISFTGSTTTGKILLHHAANSVKRVSMELGGLAPFIVFDSANVDQAVAGAMASKFRNTGQTCVCSNQFLVQRGIHDAFVKAFAEAMKKNLRVGNGFEEGTTQGPLINEKAVEKVEKQVNDAVSKGATVVTGGKRHQLGKNFFEPTLLCNVTQDMLCTHEETFGPLAPVIKFDTEEEAIAIANAADVGLAGYFYSQDPAQIWRVAEQLEVGMVGVNEGLISSVECPFGGVKQSGLGREGSKYGIDEYLELKYVCYGGL",stoichiometry N,[6],4
